*1 amine or outer side, *2 acyl side, *3 side chain or, on linkers, in order; H or OH if unused. Where a SMILES comes first, the peptide text is derived from it. Side-chain parts run from the residue outwards. The star is where a group is joined. C18 diacid = O=C(O)CCCCCCCCCCCCCCCCC(=O)*; γGlu = O=C(O)[C@H](CCC(=O)[*:2])N[*:1]; Isovaleryl = CC(C)CC(=O)*; Ahx = NCCCCCC(=O)O
Key:
Solubility determination = conditions: for Sol6: pH 6; for Sol7: pH 7
Summary of the method: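 Shake-flask style: 10 mg/ml peptide (TFA salt), 0.1 M sodium diphosphate pH 6.4/7.0, 600 rpm, 2 h, RT; filter; dilute 1 mg/ml in 50% MeCN; RP-UPLC, 0–100% B over 2 min, 50 °C. Solubility = sample/control area ratio. Final pH recorded.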

[1] = biological target: T1, human NPY5 receptor (hY5R) (Homo sapiens, UniProt Q15761); assay: HTRF cAMP Gi assay, hY5R
T1 sequence (Q15761 1-445): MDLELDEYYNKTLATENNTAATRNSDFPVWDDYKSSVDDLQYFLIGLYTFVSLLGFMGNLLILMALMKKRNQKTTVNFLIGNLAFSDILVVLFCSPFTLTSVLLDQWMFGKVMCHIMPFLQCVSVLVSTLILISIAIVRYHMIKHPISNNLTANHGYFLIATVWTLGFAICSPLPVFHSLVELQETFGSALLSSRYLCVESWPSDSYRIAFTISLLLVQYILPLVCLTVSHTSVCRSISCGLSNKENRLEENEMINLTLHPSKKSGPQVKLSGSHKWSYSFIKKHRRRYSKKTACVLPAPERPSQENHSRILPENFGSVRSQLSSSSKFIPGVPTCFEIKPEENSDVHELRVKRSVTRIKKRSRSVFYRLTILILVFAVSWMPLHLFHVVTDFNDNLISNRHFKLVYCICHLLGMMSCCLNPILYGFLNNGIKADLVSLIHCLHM
Procedure: Briefly, the production of intracellular cAMP will generate a competition between unlabeled cAMP and exogenously added d2-cAMP for anti-cAMP antibodies conjugated to cryptate. CHO-K1 cells stably expressing the human NPY1, NPY2, NPY4 and NPY5 receptors were used with the cells brought to life from a frozen stock immediately before assay performance. 2000 cells per well were applied for all four NPY receptor subtype assays. A 384-well format was used applying a total volume of 20 μl using 5 μl cells, 2.5 μl peptide agonist, 2.5 μl forskolin and 5 μl of each of the fluorophores. […] Concentration-response evaluation of compounds was performed with 11 concentrations of agonist peptides (covering 3 decades). EC50 values were calculated by nonlinear regression using sigmoid concentration-response with variable slope.

[2] = biological target: T2, Human Neuropeptide Y2 Receptor (Homo sapiens, UniProt P49146); assay: Radioligand binding competition assay (RLB); conditions: Table 3, 125I-PYY(1-36) competition; read-out: Ki
T2 construct: purchased CHEMICON HTS066M
T2 sequence (P49146 1-381): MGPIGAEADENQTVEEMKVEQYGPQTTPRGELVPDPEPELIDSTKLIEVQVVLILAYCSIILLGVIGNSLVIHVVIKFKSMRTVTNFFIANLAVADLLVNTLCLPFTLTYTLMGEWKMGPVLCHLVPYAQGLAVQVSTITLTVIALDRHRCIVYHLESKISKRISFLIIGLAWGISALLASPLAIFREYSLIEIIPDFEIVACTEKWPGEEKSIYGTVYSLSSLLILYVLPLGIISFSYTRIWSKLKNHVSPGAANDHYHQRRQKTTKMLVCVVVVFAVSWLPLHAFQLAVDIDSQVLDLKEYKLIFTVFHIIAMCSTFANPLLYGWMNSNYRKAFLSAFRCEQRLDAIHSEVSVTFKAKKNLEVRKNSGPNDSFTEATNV
Summary of the method: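 Peptides were serially diluted from 1 mM DMSO stocks and competed for radioligand binding to receptor membranes (0.5 μg/well) over 2 h at room temperature, pH 7.4 HEPES buffer. Bound radioactivity on filters was counted by scintillation, and IC50 was derived by nonlinear regression.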

Sol6 (Solubility determination)	Sol7 (Solubility determination)	EC50 [1]	Ki [2]	Compound
9.4 mg/mL	9.8 mg/mL	> 5 µM	4.16 nM	CC(C)CC(=O)N[C@@H](C)C(=O)N1CCC[C@H]1C(=O)N[C@@H](CCC(=O)O)C(=O)N[C@@H](CCCCNC(=O)CCCCCNC(=O)CC[C@H](NC(=O)CCCCCCCCCCCCCCCCC(=O)O)C(=O)O)C(=O)N1CCC[C@H]1C(=O)N[C@@H](CCC(=O)O)C(=O)N[C@@H](CCC(=O)O)C(=O)N[C@@H](CC(=O)O)C(=O)N[C@@H](C)C(=O)N[C@@H](CO)C(=O)N1CCC[C@H]1C(=O)N[C@@H](CCC(=O)O)C(=O)N[C@@H](CCC(=O)O)C(=O)N[C@@H](CC(C)C)C(=O)N[C@@H](CCC(N)=O)C(=O)N[C@@H](CCC(N)=O)C(=O)N[C@@H](Cc1ccc(O)cc1)C(=O)N[C@@H](Cc1ccc(O)cc1)C(=O)N[C@H](C(=O)N[C@@H](CO)C(=O)N[C@@H](CC(C)C)C(=O)N[C@@H](CCCNC(=N)N)C(=O)N[C@@H](Cc1c[nH]cn1)C(=O)N[C@@H](Cc1ccc(O)cc1)C(=O)N[C@@H](Cc1ccc(O)cc1)C(=O)N[C@@H](Cc1c[nH]cn1)C(=O)N[C@@H](Cc1c[nH]c2ccccc12)C(=O)N[C@@H](CC(C)C)C(=O)N[C@H](C(=O)N[C@@H](CCCNC(=N)N)C(=O)N[C@@H](CCC(N)=O)C(=O)N[C@@H](CCCNC(=N)N)C(=O)N[C@@H](Cc1ccc(O)cc1)C(N)=O)[C@@H](C)O)C(C)C [Compound 12, N{alpha-4}-(3-methylbutanoyl)-N{epsilon-7}-(6-[(4S)-4-carboxy-4-(17-carboxyheptadecanamido)butanamido]hexanoyl)[4A,7K,9E,18Q,19Q,22V,28Y,29H,30W,31L]-hPYY(4-36)] (Isovaleryl-APEK([Ahx-γGlu-C18 diacid])PEEDASPEELQQYYVSLRHYYHWLTRQRY-NH2)
7.2 mg/mL	9.0 mg/mL	> 5 µM	5.29 nM	CC(C)CC(=O)N[C@@H](C)C(=O)N1CCC[C@H]1C(=O)N[C@@H](C)C(=O)N[C@@H](CCCCNC(=O)CCCCCNC(=O)CC[C@H](NC(=O)CCCCCCCCCCCCCCCCC(=O)O)C(=O)O)C(=O)N1CCC[C@H]1C(=O)N[C@@H](CCC(=O)O)C(=O)N[C@@H](CCC(=O)O)C(=O)N[C@@H](CC(=O)O)C(=O)N[C@@H](C)C(=O)N[C@@H](CO)C(=O)N1CCC[C@H]1C(=O)N[C@@H](CCC(=O)O)C(=O)N[C@@H](CCC(=O)O)C(=O)N[C@@H](CC(C)C)C(=O)N[C@@H](CCC(N)=O)C(=O)N[C@@H](CCCNC(=N)N)C(=O)N[C@@H](Cc1ccc(O)cc1)C(=O)N[C@@H](Cc1ccc(O)cc1)C(=O)N[C@H](C(=O)N[C@@H](CO)C(=O)N[C@@H](CC(C)C)C(=O)N[C@@H](CCCNC(=N)N)C(=O)N[C@@H](Cc1c[nH]cn1)C(=O)N[C@@H](Cc1ccc(O)cc1)C(=O)N[C@@H](Cc1ccc(O)cc1)C(=O)N[C@@H](CC(N)=O)C(=O)N[C@@H](Cc1c[nH]c2ccccc12)C(=O)N[C@@H](CC(C)C)C(=O)N[C@H](C(=O)N[C@@H](CCCNC(=N)N)C(=O)N[C@@H](CCC(N)=O)C(=O)N[C@@H](CCCNC(=N)N)C(=O)N[C@@H](Cc1ccc(O)cc1)C(N)=O)[C@@H](C)O)C(C)C [Compound 145, N{alpha-4}-(3-methylbutanoyl)-N{epsilon-7}-(6-[(4S)-4-carboxy-4-(17-carboxyheptadecanamido)butanamido]hexanoyl)-[4A,6A,7K,9E,18Q,22V,28Y,30W,31L]-hPYY(4-36)]
10.0 mg/mL	10.0 mg/mL	> 5 µM	1.54 nM	CC(C)CC(=O)N[C@@H](C)C(=O)N1CCC[C@H]1C(=O)N[C@@H](CCC(=O)O)C(=O)N[C@@H](CCCCNC(=O)CCCCCNC(=O)CC[C@H](NC(=O)CCCCCCCCCCCCCCCCC(=O)O)C(=O)O)C(=O)N1CCC[C@H]1C(=O)N[C@@H](CCC(=O)O)C(=O)N[C@@H](CCC(=O)O)C(=O)N[C@@H](CC(=O)O)C(=O)N[C@@H](C)C(=O)N[C@@H](CO)C(=O)N1CCC[C@H]1C(=O)N[C@@H](CCC(=O)O)C(=O)N[C@@H](CCC(=O)O)C(=O)N[C@@H](CC(C)C)C(=O)N[C@@H](CCC(N)=O)C(=O)N[C@@H](CCCNC(=N)N)C(=O)N[C@@H](Cc1ccc(O)cc1)C(=O)N[C@@H](Cc1ccc(O)cc1)C(=O)N[C@H](C(=O)N[C@@H](CO)C(=O)N[C@@H](CC(C)C)C(=O)N[C@@H](CCCNC(=N)N)C(=O)N[C@@H](Cc1c[nH]cn1)C(=O)N[C@@H](Cc1ccc(O)cc1)C(=O)N[C@@H](Cc1ccc(O)cc1)C(=O)N[C@@H](CC(N)=O)C(=O)N[C@@H](Cc1c[nH]c2ccccc12)C(=O)N[C@@H](CC(C)C)C(=O)N[C@H](C(=O)N[C@@H](CCCNC(=N)N)C(=O)N[C@@H](CCC(N)=O)C(=O)N[C@@H](CCCNC(=N)N)C(=O)N[C@@H](Cc1ccc(O)cc1)C(N)=O)[C@@H](C)O)C(C)C [Compound 79, N{alpha-4}-(3-methylbutanoyl)-N{epsilon-7}-(6-[(4S)-4-carboxy-4-(17-carboxyheptadecanamido)butanamido]hexanoyl)-[4A,7K,9E,18Q,22V,28Y,30W,31L]-hPYY(4-36)]
10.0 mg/mL	8.3 mg/mL	> 5 µM	2.81 nM	CC(C)CC(=O)N[C@@H](C)C(=O)N1CCC[C@H]1C(=O)N[C@@H](CCC(=O)O)C(=O)N[C@@H](CCCCNC(=O)CCCCCNC(=O)CC[C@H](NC(=O)CCCCCCCCCCCCCCCCC(=O)O)C(=O)O)C(=O)N1CCC[C@H]1C(=O)N[C@@H](CCC(=O)O)C(=O)N[C@@H](CCC(=O)O)C(=O)N[C@@H](CC(=O)O)C(=O)N[C@@H](C)C(=O)N[C@H](C(=O)N1CCC[C@H]1C(=O)N[C@@H](CCC(=O)O)C(=O)N[C@@H](CCC(=O)O)C(=O)N[C@@H](CC(C)C)C(=O)N[C@@H](CCC(N)=O)C(=O)N[C@@H](CCCCN)C(=O)N[C@@H](Cc1ccc(O)cc1)C(=O)N[C@@H](Cc1ccc(O)cc1)C(=O)N[C@H](C(=O)N[C@@H](CO)C(=O)N[C@@H](CC(C)C)C(=O)N[C@@H](CCCNC(=N)N)C(=O)N[C@@H](Cc1c[nH]cn1)C(=O)N[C@@H](Cc1ccc(O)cc1)C(=O)N[C@@H](Cc1ccc(O)cc1)C(=O)N[C@@H](CC(N)=O)C(=O)N[C@@H](Cc1c[nH]c2ccccc12)C(=O)N[C@@H](CC(C)C)C(=O)N[C@H](C(=O)N[C@@H](CCCNC(=N)N)C(=O)N[C@@H](CCC(N)=O)C(=O)N[C@@H](CCCNC(=N)N)C(=O)N[C@@H](Cc1ccc(O)cc1)C(N)=O)[C@@H](C)O)C(C)C)[C@@H](C)O [Compound 16, N{alpha-4}-(3-methylbutanoyl)-N{epsilon-7}-(6-[(4S)-4-carboxy-4-(17-carboxyheptadecanamido)butanamido]hexanoyl)[4A,7K,9E,13T,18Q,19K,22V,28Y,30W,31L]-hPYY(4-36)]
8.4 mg/mL	8.7 mg/mL	> 5 µM	18.8 nM	CC[C@H](C)[C@H](NC(=O)[C@H](CCC(=O)O)NC(=O)[C@H](CCC(=O)O)NC(=O)[C@@H]1CCCN1C(=O)[C@H](CO)NC(=O)[C@H](C)NC(=O)[C@H](CC(=O)O)NC(=O)[C@H](CCC(=O)O)NC(=O)[C@H](CCC(=O)O)NC(=O)[C@H](C)NC(=O)[C@H](CCCCNC(=O)CCCCCNC(=O)CC[C@H](NC(=O)CCCCCCCCCCCCCCCCC(=O)O)C(=O)O)NC(=O)[C@H](CCC(=O)O)NC(=O)[C@@H]1CCCN1C(=O)[C@H](C)NC(=O)CC(C)C)C(=O)N[C@@H](CCC(N)=O)C(=O)N[C@@H](CCCNC(=N)N)C(=O)N[C@@H](Cc1ccc(O)cc1)C(=O)N[C@@H](Cc1ccc(O)cc1)C(=O)N[C@H](C(=O)N[C@@H](CO)C(=O)N[C@@H](CC(C)C)C(=O)N[C@@H](CCCNC(=N)N)C(=O)N[C@@H](Cc1c[nH]cn1)C(=O)N[C@@H](Cc1ccc(O)cc1)C(=O)N[C@@H](Cc1ccc(O)cc1)C(=O)N[C@@H](CC(N)=O)C(=O)N[C@@H](Cc1c[nH]c2ccccc12)C(=O)N[C@@H](CC(C)C)C(=O)N[C@H](C(=O)N[C@@H](CCCNC(=N)N)C(=O)N[C@@H](CCC(N)=O)C(=O)N[C@@H](CCCNC(=N)N)C(=O)N[C@@H](Cc1ccc(O)cc1)C(N)=O)[C@@H](C)O)C(C)C [Compound 183, N{alpha-4}-(3-methylbutanoyl)-N{epsilon-7}-(6-[(4S)-4-carboxy-4-(17-carboxyheptadecanamido)butanamido]hexanoyl)-[4A,7K,8A,9E,17I,18Q,22V,28Y,30W,31L]-hPYY(4-36)]
